Measurements reported in US6528093B1, “Sustained-release preparation” (Takeda Chemical Industries, Ltd., priority 1992, dated 2003).

Experiment: Dissolution of peptide acetate in a dichloromethane solution of lactic acid-glycolic acid copolymer
Type: physicochemical
Conditions: 8.0 g dichloromethane

## CCNC(=O)[C@@H]1CCCN1C(=O)[C@H](CCCNC(=N)N)NC(=O)[C@H](CC(C)C)NC(=O)[C@@H](CC(C)C)NC(=O)[C@H](Cc1ccc(O)cc1)NC(=O)[C@H](CO)NC(=O)[C@H](Cc1c[nH]c2ccccc12)NC(=O)[C@H](Cc1c[nH]cn1)NC(=O)[C@@H]1CCC(=O)N1 [Leuprorelin acetate]
400 mg in 3.6 g lactic acid/glycolic acid=75/25 copolymer of Example 12 (GPC Mw 10,000, end-group Mn 4,300)
  dissolution in copolymer/dichloromethane solution: clear homogeneous solution
400 mg in 3.6 g lactic acid/glycolic acid=75/25 copolymer, GPC Mw 18,000, end-group Mn 30,000 (RG752-15057)
  dissolution in copolymer/dichloromethane solution: could not be successfully dissolved
